Experimental findings from patent publication US8871435B2, “Methods and compositions for identifying agents that inhibit an NS4B-mediated neoplastic cellular phenotype of HCV infected cells” (The Board of Trustees of the Leland Stanford Junior …, priority 2007, dated 2014) are described below.

The target in the test is NS4B-GFP (Hepatitis C virus genotype 1b, UniProt Q9WMX2). It counts as binding, hepatitis C virus (HCV).
Sequence of NS4B-GFP (Q9WMX2 1712-1972): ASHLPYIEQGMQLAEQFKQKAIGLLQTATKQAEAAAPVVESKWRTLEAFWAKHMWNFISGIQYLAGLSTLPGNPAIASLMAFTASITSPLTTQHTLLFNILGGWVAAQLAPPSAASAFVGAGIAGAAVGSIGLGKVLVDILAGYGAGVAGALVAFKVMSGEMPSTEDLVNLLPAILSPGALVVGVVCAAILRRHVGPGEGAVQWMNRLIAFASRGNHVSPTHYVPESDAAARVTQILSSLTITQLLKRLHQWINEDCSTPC

`[N-]=[N+]=Nc1ccc(NP(=O)(O)OP(=O)(O)OP(=O)(O)OC[C@H]2O[C@@H](n3cnc4c(=O)[nH]c(N)nc43)[C@H](O)[C@@H]2O)cc1` [GTP, GTP-γ-4-azidoanilide]: the “labeling (binding) of NS4B-GFP by 32P-labeled photoactivatable nucleotide analog” value is “specifically labeled”.

`[N-]=[N+]=Nc1ccc(NP(=O)(O)OP(=O)(O)OP(=O)(O)OC[C@H]2O[C@@H](n3cnc4c(N)ncnc43)[C@H](O)[C@@H]2O)cc1` [ATP, ATP-γ-4-azidoanilide]: the “labeling (binding) of NS4B-GFP by 32P-labeled photoactivatable nucleotide analog” value is “significantly less efficient than GTP binding”.

For the compound `Nc1nc2c(ncn2[C@@H]2O[C@H](COP(=O)(O)OP(=O)(O)OP(O)(O)=S)[C@@H](O)[C@H]2O)c(=O)[nH]1` [GTPγS], the “binding of labeled GTP in the presence of cold competitor nucleotide” value is “progressively decreased”.
